From publication PMC3081938 (Journal of natural products, 2011)
“Also recorded” adds a separate entry of the source.

Assays:
[1] = test system: opioid mediated antinociceptive properties; details: rats; cited from earlier work
KOP receptors [2] = target: T1, KOP receptors (Homo sapiens, UniProt P41145); assay: biochemical; assay type: biochemical
5-HT2A receptor = details: cited from earlier work
κ opioid (KOP) receptors = details: cited from earlier work
[3] = test system: locomotor effects of cocaine; details: rats; cited from earlier work
DOP receptors = DOP receptors (Homo sapiens, UniProt P41143); assay type: binding
KOP receptors [4] = target: T1, KOP receptors; assay: biochemical; assay type: binding

T1 sequence (P41145 whole entry): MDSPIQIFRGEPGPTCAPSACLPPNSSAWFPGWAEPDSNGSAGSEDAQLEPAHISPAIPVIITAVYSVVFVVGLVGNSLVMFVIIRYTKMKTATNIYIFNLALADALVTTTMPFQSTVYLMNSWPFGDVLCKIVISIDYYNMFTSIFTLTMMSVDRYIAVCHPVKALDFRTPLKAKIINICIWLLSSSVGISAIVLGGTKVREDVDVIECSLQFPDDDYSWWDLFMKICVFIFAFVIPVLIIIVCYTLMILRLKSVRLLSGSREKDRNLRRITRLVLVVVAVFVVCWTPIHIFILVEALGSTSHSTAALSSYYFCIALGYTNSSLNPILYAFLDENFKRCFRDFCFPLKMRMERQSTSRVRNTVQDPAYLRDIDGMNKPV
Chain of DOP receptors (P41143 whole entry): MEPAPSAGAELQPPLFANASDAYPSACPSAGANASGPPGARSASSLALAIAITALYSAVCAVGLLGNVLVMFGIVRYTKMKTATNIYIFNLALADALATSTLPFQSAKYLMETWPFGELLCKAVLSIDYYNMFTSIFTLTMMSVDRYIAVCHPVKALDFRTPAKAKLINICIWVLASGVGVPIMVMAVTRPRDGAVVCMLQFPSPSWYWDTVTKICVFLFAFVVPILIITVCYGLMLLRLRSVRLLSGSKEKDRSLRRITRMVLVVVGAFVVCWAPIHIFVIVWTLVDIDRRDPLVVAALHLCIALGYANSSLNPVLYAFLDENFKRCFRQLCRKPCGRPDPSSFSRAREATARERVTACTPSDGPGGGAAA

COC(=O)[C@@H]1C[C@H](OC(C)=O)C(=O)[C@H]2[C@@]1(C)CC[C@H]1C(=O)O[C@H](c3ccoc3)C[C@]21C [Compound 1, (2S,4aR,6aR,7R,9S,10aS,10bR)-methyl 9-acetoxy-2-(furan-3-yl)-6a,10b-dimethyl-4,10-dioxo-dodecahydro-1H-benzo[f]isochromene-7-carboxylate]
Antinociceptive properties [1]: opioid mediated antinociceptive properties | KOP ED50 ± SD (KOP receptors [2]): 0.04 µM | Affinity for the 5-HT2A receptor (5-HT2A receptor): does not have any affinity | Agonism at κ opioid (KOP) receptors (κ opioid (KOP) receptors): full agonist | Effect on locomotor effects of cocaine [3]: can block the locomotor effects of cocaine

CCOC(=O)C1=C(C(=O)OCC)C2OC1C=C2[C@@H]1C[C@]2(C)[C@H]3C(=O)[C@@H](OC(C)=O)C[C@@H](C(=O)OC)[C@]3(C)CC[C@H]2C(=O)O1 (stereo partly drawn) [Compound 5, Diethyl 5-((2S,4aR,6aR,7R,9S,10aS,10bR)-9-acetoxy-7-(methoxycarbonyl)-6a,10b-dimethyl-4,10-dioxododecahydro-1H-benzo[f]isochromen-2-yl)-7-oxabicyclo[2.2.1]hepta-2,5-diene-2,3-dicarboxylate]
EC50 (KOP receptors [2]): 2.15 µM | Efficacy at KOP receptors (in words) (KOP receptors [2]): full agonists; also recorded: high efficacy | Fold increase in affinity for DOP receptors (DOP receptors): over 4 fold

COC(=O)C1=C(C(=O)OC)C2OC1C=C2[C@@H]1C[C@]2(C)[C@H]3C(=O)[C@@H](OC(C)=O)C[C@@H](C(=O)OC)[C@]3(C)CC[C@H]2C(=O)O1 (stereo partly drawn) [Compound 6, Dimethyl 5-((2S,4aR,6aR,7R,9S,10aS,10bR)-9-acetoxy-7-(methoxycarbonyl)-6a,10b-dimethyl-4,10-dioxododecahydro-1H-benzo[f]isochromen-2-yl)-7-oxabicyclo[2.2.1]hepta-2,5-diene-2,3-dicarboxylate]
EC50 (KOP receptors [2]): 0.98 ± 0.2 µM | Efficacy at KOP receptors (in words) (KOP receptors [2]): full agonist

COC(=O)[C@@H]1C[C@H](OC(C)=O)C(=O)[C@H]2[C@@]1(C)CC[C@H]1C(=O)O[C@H](C3=CC4OC3C3C5OC(c6c5c5ccccc5c(=O)c5ccccc65)C43)C[C@]21C (stereo partly drawn) [Compound 11, (2S,4aR,6aR,7R,9S,10aS,10bR)-Methyl 9-acetoxy-2-(8,8a,9,12,12a,13-hexahydro-8,13:9,12-diepoxy-5H-dibenzo[3,4:6,7]cyclohept[1,2]naphthanen-5-on-10-yl)-6a,10b-dimethyl-4,10-dioxododecahydro-1H-benzo[f]isochromene-7-carboxylate]
Ki ± SD (nM) DOP (DOP receptors): no appreciable affinity

COC(=O)[C@@H]1C[C@H](OC(C)=O)C(=O)[C@H]2[C@@]1(C)CC[C@H]1C(=O)O[C@H](C3=CC4OC3C3C4C4OC3(C)c3c4c4ccccc4c(=O)c4ccccc34)C[C@]21C (stereo partly drawn) [Compound 12, (2S,4aR,6aR,7R,9S,10aS,10bR)-Methyl 9-acetoxy-2-(8,8a,9,12,12a,13-hexahydro-8-methyl-8,13:9,12-diepoxy-5H-dibenzo[3,4:6,7]cyclohept[1,2]naphthanen-5-on-10-yl)-6a,10b-dimethyl-4,10-dioxododecahydro-1H-benzo[f]isochromene-7-carboxylate]
Fold increase in affinity for KOP receptors (KOP receptors [4]): 44 fold

COC(=O)c1ccc([C@@H]2C[C@]3(C)[C@H]4C(=O)[C@@H](OC(C)=O)C[C@@H](C(=O)OC)[C@]4(C)CC[C@H]3C(=O)O2)cc1C(=O)OC [Compound 14, Dimethyl 4-((2S,4aR,6aR,7R,9S,10aS,10bR)-9-acetoxy-7-(methoxycarbonyl)-6a,10b-dimethyl-4,10-dioxododecahydro-1H-benzo[f]isochromen-2-yl)phthalate]
Ki (KOP receptors [4]): 0.228 µM

COC(=O)[C@@H]1C[C@H](OC(C)=O)C(=O)[C@H]2[C@@]1(C)CC[C@H]1C(=O)O[C@H](c3ccc4ccccc4c3)C[C@]21C [Compound 15, (2S,4aR,6aR,7R,9S,10aS,10bR)-methyl 9-acetoxy-6a,10b-dimethyl-2-(naphthalen-2-yl)-4,10-dioxododecahydro-1H-benzo[f]isochromene-7-carboxylate]
Ki (KOP receptors [4]): 0.286 µM
